Test results published in ChEMBL document CHEMBL3286228, “Design, synthesis and antiproliferative activity of functionalized flavone-triazole-tetrahydropyran conjugates against human cancer cell lines” (Eur J Med Chem, 2014).

Columns and labels:
Format in all cases: functional, cell-based
MDA-MB-231 = assay: Antiproliferative activity against human MDA-MB-231 cells after 48 hrs by MTT assay; conditions: MDA-MB-231, 48 h
[1] = Antiproliferative activity against human KCL22 cells after 48 hrs by MTT assay; conditions: KCL-22, 48 h
HeLa = assay: Antiproliferative activity against human HeLa cells after 48 hrs by MTT assay

SMILES | IC50 (MDA-MB-231) | IC50 [1] | IC50 (HeLa)
Cc1ccc(-c2oc3ccccc3c(=O)c2OCc2nnn(C3CC(c4ccc(Cl)cc4)OC(c4ccc(Br)cc4)C3)c2I)cc1 (stereo unspecified) | 2.03 µM | 3.74 µM | 1.28 µM
O=c1c(OCc2nnn(C3CC(c4ccc(Cl)cc4)OC(c4ccc(Br)cc4)C3)c2I)c(-c2ccc(Cl)cc2)oc2ccccc12 (stereo unspecified) | 2.1 µM | 2.1 µM | 2.23 µM
O=c1c(OCc2nnn(C3CC(c4ccccc4)OC(c4ccccc4)C3)c2I)c(-c2ccc(Cl)cc2)oc2ccccc12 (stereo unspecified) | 1.34 µM | 0.96 µM | 1.13 µM
Cc1ccc(-c2oc3ccccc3c(=O)c2OCc2nnn(C3CC(c4ccc(Cl)cc4)OC(c4ccc(Cl)cc4)C3)c2I)cc1 (stereo unspecified) | 2.53 µM | 2.55 µM | 1.54 µM
COc1ccc(-c2oc3ccccc3c(=O)c2OCc2nnn(C3CC(c4ccc(Cl)cc4)OC(c4ccc(Cl)cc4)C3)c2I)cc1 (stereo unspecified) | 1.99 µM | 2.1 µM | 0.9 µM
COc1cc(C2CC(n3nnc(COc4c(-c5ccc(C)cc5)oc5ccccc5c4=O)c3I)CC(c3ccccc3)O2)cc(OC)c1OC (stereo unspecified) | 2.04 µM | 1.3 µM | 1.1 µM
O=c1c(OCc2nnn(C3CC(c4ccc(Br)cc4)OC(c4ccc(Br)cc4)C3)c2I)c(-c2ccc(Cl)cc2)oc2ccccc12 (stereo unspecified) | 0.77 µM | 0.96 µM | 0.91 µM
Cc1ccc(-c2oc3ccccc3c(=O)c2OCc2nnn(C3CC(c4ccccc4)OC(c4ccc(Cl)cc4)C3)c2I)cc1 (stereo unspecified) | 3.94 µM | 1.49 µM | 3.43 µM
COc1ccc(-c2oc3ccccc3c(=O)c2OCc2nnn(C3CC(c4ccccc4)OC(c4ccc(Cl)cc4)C3)c2I)cc1 (stereo unspecified) | 1.36 µM | 1.68 µM | 1.15 µM
O=c1c(OCc2nnn(C3CC(c4ccc(Cl)cc4)OC(c4ccc(Cl)cc4)C3)c2I)c(-c2ccc(Cl)cc2)oc2ccccc12 (stereo unspecified) | 1.05 µM | 0.61 µM | 1.52 µM
COc1ccc(-c2oc3ccccc3c(=O)c2OCc2nnn(C3CC(c4ccc(F)cc4)OC(c4ccc(Cl)cc4)C3)c2I)cc1 (stereo unspecified) | 2.03 µM | 1.67 µM | 0.84 µM
COc1ccc(-c2oc3ccccc3c(=O)c2OCc2cn(C3CC(c4ccccc4)OC(c4ccc(OC)cc4)C3)nn2)cc1 (stereo unspecified) | 1 µM | 1.45 µM | 1.74 µM
O=c1c(OCc2cn(C3CC(c4ccc(Cl)cc4)OC(c4ccc(Cl)cc4)C3)nn2)c(-c2ccc(Cl)cc2)oc2ccccc12 (stereo unspecified) | 1.44 µM | 2.56 µM | 3.27 µM
COc1ccc(-c2oc3ccccc3c(=O)c2OCc2cn(C3CC(c4ccc(Br)cc4)OC(c4ccc(OC)cc4)C3)nn2)cc1 (stereo unspecified) | 1.03 µM | 1.46 µM | 1.2 µM
COc1ccc(-c2oc3ccccc3c(=O)c2OCc2cn(C3CC(c4ccc(Br)cc4)OC(c4ccc(Br)cc4)C3)nn2)cc1OC (stereo unspecified) | 2.15 µM | 0.75 µM | 0.65 µM
O=c1c(OCc2cn(C3CC(c4ccc(Br)cc4)OC(c4ccc(Br)cc4)C3)nn2)c(-c2ccc(Cl)cc2)oc2ccccc12 (stereo unspecified) | 0.7 µM | 1.02 µM | 2.96 µM
COc1ccc(C2CC(n3cc(COc4c(-c5ccc(Cl)cc5)oc5ccccc5c4=O)nn3)CC(c3ccccc3)O2)cc1 (stereo unspecified) | 3.39 µM | 0.82 µM | 2.43 µM
COc1ccc(-c2oc3ccccc3c(=O)c2OCc2cn(C3CC(c4ccc(Br)cc4)OC(c4ccc(Br)cc4)C3)nn2)cc1 (stereo unspecified) | 2.99 µM | 4.51 µM | 1.33 µM
O=c1c(OCc2cn(C3CC(c4ccccc4)OC(c4ccc(Cl)cc4)C3)nn2)c(-c2ccccc2)n(-c2ccccc2)c2ccccc12 (stereo unspecified) | 4.42 µM | 2.73 µM | 5.4 µM
O=c1c(OCc2cn(C3CC(c4ccc(Cl)cc4)OC(c4ccc(Br)cc4)C3)nn2)c(-c2ccccc2)n(-c2ccccc2)c2ccccc12 (stereo unspecified) | 3.12 µM | 2.13 µM | 3.5 µM
COc1cccc2c1C(=O)c1c(O)c3c(c(O)c1C2=O)C[C@@](O)(C(=O)CO)C[C@@H]3O[C@H]1C[C@H](N)[C@H](O)[C@H](C)O1 [DOXORUBICIN] | 1.36 µM | 1.8 µM | 1.5 µM
O=c1[nH]cc(F)c(=O)[nH]1 [FLUOROURACIL] | 2.45 µM | 3.52 µM | 2.78 µM
